ChEMBL document CHEMBL3822455, “Aryl or heteroaryl substituted aminal derivatives of HCV NS5A inhibitor MK-8742” (Bioorg Med Chem Lett, 2016)

Assays:
[1] = tested on: Hepatitis C virus; experiment: Antiviral activity against HCV genotype 1a assessed as replicon RNA level measured after 3 days by real-time PCR method; assay type: functional, organism-based, Hepacivirus hominis; details: subtype 1a, 72 h
[2] = tested on: Hepatitis C virus; experiment: Antiviral activity against HCV genotype 1b assessed as replicon RNA level measured after 3 days by real-time PCR method; assay type: functional, organism-based, Hepacivirus hominis; details: 72 h
[3] = tested on: Hepatitis C virus; experiment: Antiviral activity against HCV genotype 2a assessed as replicon RNA level measured after 3 days by real-time PCR method; assay type: functional, organism-based, Hepacivirus hominis; details: 72 h
[4] = tested on: Hepatitis C virus; experiment: Antiviral activity against HCV genotype 2b assessed as replicon RNA level measured after 3 days by real-time PCR method; assay type: functional, organism-based, Hepacivirus hominis; details: 72 h
[5] = tested on: Hepatitis C virus; experiment: Antiviral activity against HCV genotype 3a assessed as replicon RNA level measured after 3 days by real-time PCR method; assay type: functional, organism-based, Hepacivirus hominis; details: 72 h
[6] = tested on: Hepatitis C virus; experiment: Antiviral activity against HCV genotype 4a assessed as replicon RNA level measured after 3 days by real-time PCR method; assay type: functional, organism-based, Hepacivirus hominis; details: 72 h
[7] = tested on: Hepatitis C virus; experiment: Antiviral activity against HCV genotype 1a harboring NS5A Y93H mutant assessed as replicon RNA level measured after 3 days by real-time PCR method; assay type: functional, organism-based, Hepacivirus hominis; details: subtype 1a, 72 h
[8] = tested on: Hepatitis C virus; experiment: Antiviral activity against HCV genotype 1a harboring NS5A L31V mutant assessed as replicon RNA level measured after 3 days by real-time PCR method; assay type: functional, organism-based, Hepacivirus hominis; details: subtype 1a, 72 h
[9] = (§1) AUC in Sprague-Dawley rat at 5 mg/kg, po; assay type: ADME, organism-based; details: Sprague-Dawley, in vivo
[10] = Half life in Sprague-Dawley rat at 2 mg/kg, iv or 5 mg/kg, po; assay type: ADME, organism-based; details: in vivo
[11] = Clearance in Sprague-Dawley rat at 2 mg/kg, iv or 5 mg/kg, po; assay type: ADME, organism-based; details: in vivo
[12] = (§2) Oral bioavailability in Sprague-Dawley rat at 5 mg/kg; assay type: ADME, organism-based; details: Sprague-Dawley, in vivo
[13] = tested on: Rattus norvegicus; experiment: as §1; assay type: ADME, organism-based; details: in vivo
[14] = tested on: Rattus norvegicus; experiment: as §2; assay type: ADME, organism-based; details: in vivo
[15] = tested on: Canis familiaris; experiment: AUC in beagle dog at 5 mg/kg, po; assay type: ADME, organism-based, Canis lupus familiaris; details: in vivo
[16] = Half life in beagle dog at 2 mg/kg, iv or 5 mg/kg, po; assay type: ADME, organism-based, Canis lupus familiaris; details: in vivo
[17] = tested on: Canis familiaris; experiment: Oral bioavailability in beagle dog at 5 mg/kg; assay type: ADME, organism-based, Canis lupus familiaris; details: in vivo
[18] = Selectivity ratio of EC50 for HCV genotype 2b to EC50 for HCV genotype 1a; assay type: functional
[19] = tested on: Hepatitis C virus; experiment: Selectivity ratio of EC50 for HCV genotype 1a harboring NS5A Y93H mutant to EC50 for HCV genotype 1a; assay type: functional, Hepacivirus hominis, subtype 1a
[20] = tested on: Hepatitis C virus; experiment: Selectivity ratio of EC50 for HCV genotype 1a harboring NS5A L31V mutant to EC50 for HCV genotype 1a; assay type: functional, Hepacivirus hominis, subtype 1a

SMILES | EC50 [1] | EC50 [2] | EC50 [3] | EC50 [4] | EC50 [5] | EC50 [6] | EC50 [7] | EC50 [8] | AUC [9] | half-life [10] | clearance [11] | bioavailability [12] | AUC [13] | F [14] | AUC [15] | half-life [16] | F [17] | Ratio EC50 [18] | Ratio EC50 [19] | Ratio EC50 [20]
COC(=O)N[C@H](C(=O)N1CCC[C@H]1c1ncc(-c2ccc3c(c2)OC(c2cccc(Cl)c2)n2c-3cc3cc(-c4cnc([C@@H]5CCCN5C(=O)[C@@H](NC(=O)OC)C(C)C)[nH]4)ccc32)[nH]1)C(C)C (some centres undefined) | 0.003 nM | 0.002 nM | 0.01 nM | 0.4 nM | 0.03 nM | 0.002 nM | 3 nM | 0.1 nM | 1.4 µM·h | 4.1 h | 8 mL/min/kg | 12% | – | – | – | – | – | – | – | –
COC(=O)N[C@H](C(=O)N1CCC[C@H]1c1ncc(-c2ccc3c(c2)OC(c2cccc(OC)c2)n2c-3cc3cc(-c4cnc([C@@H]5CCCN5C(=O)[C@@H](NC(=O)OC)C(C)C)[nH]4)ccc32)[nH]1)C(C)C (mixture of isomers) | 0.004 nM | 0.002 nM | 0.004 nM | 0.4 nM | 0.02 nM | 0.002 nM | < 2 nM | 0.04 nM | – | 4.6 h | – | – | 0.52 µM·h | 6% | 5 µM·h | 7.9 h | 34% | – | – | –
COC(=O)N[C@H](C(=O)N1CCC[C@H]1c1ncc(-c2ccc3c(c2)OC(c2ccc(OC(F)(F)F)cc2)n2c-3cc3cc(-c4cnc([C@@H]5CCCN5C(=O)[C@@H](NC(=O)OC)C(C)C)[nH]4)ccc32)[nH]1)C(C)C (mixture of isomers) | 0.005 nM | 0.011 nM | 0.005 nM | – | 0.03 nM | 0.2 nM | 3 nM | 0.2 nM | – | 6.3 h | – | – | 1.1 µM·h | 7% | – | – | – | – | – | –
COC(=O)N[C@H](C(=O)N1CCC[C@H]1c1ncc(-c2ccc3c(c2)OC(c2ccc(Cl)cc2)n2c-3cc3cc(-c4cnc([C@@H]5CCCN5C(=O)[C@@H](NC(=O)OC)C(C)C)[nH]4)ccc32)[nH]1)C(C)C (some centres undefined) | 0.009 nM | 0.01 nM | 0.005 nM | – | 0.04 nM | 0.01 nM | 5 nM | 0.3 nM | 0.88 µM·h | 4.5 h | 10 mL/min/kg | 10% | – | – | – | – | – | – | – | –
COC(=O)N[C@H](C(=O)N1CCC[C@H]1c1ncc(-c2ccc3c(c2)OC(c2cc(F)cc(F)c2)n2c-3cc3cc(-c4cnc([C@@H]5CCCN5C(=O)[C@@H](NC(=O)OC)C(C)C)[nH]4)ccc32)[nH]1)C(C)C (some centres undefined) | 0.011 nM | 0.01 nM | 0.02 nM | 0.5 nM | 0.09 nM | 0.004 nM | 4 nM | 0.3 nM | 1.5 µM·h | 5.1 h | 9 mL/min/kg | 15% | – | – | – | – | – | – | – | –
COC(=O)N[C@H](C(=O)N1CCC[C@H]1c1ncc(-c2ccc3c(c2)OC(c2cc(OC)cc(OC)c2)n2c-3cc3cc(-c4cnc([C@@H]5CCCN5C(=O)[C@@H](NC(=O)OC)C(C)C)[nH]4)ccc32)[nH]1)C(C)C (mixture of isomers) | 0.003 nM | 0.002 nM | 0.002 nM | 0.2 nM | 0.02 nM | 0.01 nM | 0.8 nM | 0.3 nM | – | – | – | 0% | – | – | – | – | – | 67 | 267 | 100
COC(=O)N[C@H](C(=O)N1CCC[C@H]1c1ncc(-c2ccc3c(c2)OC(c2ccccc2F)n2c-3cc3cc(-c4cnc([C@@H]5CCCN5C(=O)[C@@H](NC(=O)OC)C(C)C)[nH]4)ccc32)[nH]1)C(C)C (some centres undefined) | 0.002 nM | 0.003 nM | 0.003 nM | 3 nM | 0.1 nM | 0.007 nM | 6 nM | 0.4 nM | 0.67 µM·h | 4.6 h | 12 mL/min/kg | 8% | – | – | – | – | – | – | – | –
COC(=O)N[C@H](C(=O)N1CCC[C@H]1c1ncc(-c2ccc3c(c2)OC(c2ccc(-c4cncnc4)cc2)n2c-3cc3cc(-c4cnc([C@@H]5CCCN5C(=O)[C@@H](NC(=O)OC)C(C)C)[nH]4)ccc32)[nH]1)C(C)C (mixture of isomers) | 0.07 nM | 0.023 nM | 0.04 nM | 13 nM | 1 nM | 0.04 nM | 70 nM | 10 nM | – | – | – | – | – | – | – | – | – | – | – | –
COC(=O)N[C@H](C(=O)N1CCC[C@H]1c1ncc(-c2ccc3c(c2)OC(c2cccc(-c4cccnc4)c2)n2c-3cc3cc(-c4cnc([C@@H]5CCCN5C(=O)[C@@H](NC(=O)OC)C(C)C)[nH]4)ccc32)[nH]1)C(C)C (mixture of isomers) | 0.006 nM | 0.008 nM | 0.004 nM | 8 nM | 0.08 nM | 0.003 nM | 26 nM | 0.2 nM | – | – | – | – | – | – | – | – | – | – | – | –
COC(=O)N[C@H](C(=O)N1CCC[C@H]1c1ncc(-c2ccc3c(c2)OC(c2cccc(F)c2)n2c-3cc3cc(-c4cnc([C@@H]5CCCN5C(=O)[C@@H](NC(=O)OC)C(C)C)[nH]4)ccc32)[nH]1)C(C)C (some centres undefined) | 0.003 nM | 0.002 nM | 0.004 nM | 1 nM | 0.04 nM | 0.006 nM | 4 nM | 0.2 nM | 1.5 µM·h | 5.4 h | 7 mL/min/kg | 12% | – | – | – | – | – | – | – | –
COC(=O)N[C@H](C(=O)N1CCC[C@H]1c1ncc(-c2ccc3c(c2)OC(c2cccc(OC(F)(F)F)c2)n2c-3cc3cc(-c4cnc([C@@H]5CCCN5C(=O)[C@@H](NC(=O)OC)C(C)C)[nH]4)ccc32)[nH]1)C(C)C (mixture of isomers) | 0.005 nM | 0.003 nM | 0.003 nM | 3 nM | 0.03 nM | 0.01 nM | 6.2 nM | 0.2 nM | – | – | – | – | – | – | – | – | – | – | – | –
